Source: PMC5573420, “Correlation between human ether‐a‐go‐go‐related gene channel inhibition and action potential prolongation” (British Journal of Pharmacology, 2017)
Entries after “also recorded” stand apart in the source; their conditions may differ.

Tests used:
Nav1.5 = Nav1.5 (Homo sapiens, UniProt Q14524); assay: Sodium current inhibition in HEK cells stably expressing Nav1.5, planar patch clamp; details: for IC50: Nav1.5 IC50 (peak INa inhibition)
Protocol: (§1) Currents were low‐pass filtered at 10 kHz using the internal Bessel filter and sampled at 25 kHz. The extracellular solution for hERG current recording contained 140 mM NaCl, 4 mM KCl, 2 mM CaCl2, 1 mM MgCl2,5 mM D‐glucose and 10 mM HEPES (pH 7.4) (Sigma‐Aldrich). The intracellular solution for hERG current recording contained 50 mM KCl, 10 mM NaCl, 60 mM KF, 20 mM EGTA and 10 mM HEPES (pH 7.2). The extracellular solution for measuring sodium currents in HEK cells stably expressing the human clone of Nav1.5 (GenBank M77235) contained 4 mM KCl, 20 mM NaCl, 1.8 mM CaCl2, 0.75 mM MgCl2, 5 mM HEPES, 120 mM choline chloride and pH 7.4 using NaOH. The intracellular solution for sodium current recording contained 120 mM CsF, 20 mM CsCl, 5 mM EGTA, 5 mM HEPES and pH 7.4 using CsOH. All chemicals were obtained from Sigma‐Aldrich Chemie GmbH (Taufkirchen, Germany). The compound solutions were applied by means of the automated NPC‐16 Patchliner planar patch‐clamp platform.

hiPSC-CMs = assay: Optical measurement of action potential duration (APD90) in hiPSC-CMs using voltage-sensitive dye di-4-ANEPPS
Protocol: The plates were then incubated at 37°C, 5% CO2. Forty‐eight hours post‐thaw, 100% of the plating medium was replaced with CDI Maintenance Medium (CDI, CMC‐100‐120‐001), and further, 100% media changes were performed every 2 days after that.
Afterwards, the medium containing VSD was replaced by fresh serum‐free medium, and the cells were returned to the incubator. The multi‐well plate was placed in an environmentally controlled stage incubator (37°C, 5% CO2, water‐saturated air atmosphere) (Okolab Inc, Burlingame, CA, USA) of the CelIOPTIQ platform (Clyde Biosciences Ltd, Glasgow, Scotland). The di‐4‐ANEPPS fluorescence signal was recorded from a 0.2 × 0.2 mm area using a 40× (NA 0.6) objective lens. Excitation wavelength was 470 ± 10 nm using a light‐emitting diode (LED), and emitted light was collected by two photomultipliers (PMTs) at 510–560 and 590–650 nm respectively. LED, PMT, associated power supplies and amplifiers were supplied by Cairn Research Ltd (Kent, UK). […] A 20 s recording was then taken 30 min after exposure to the drug or vehicle with only one concentration applied per well. The records were subsequently analysed offline using proprietary software (CellOPTIQ). The procedure was repeated from four to five times, and parallel matched control (vehicle) measurements were taken on cardiomyocytes with equivalent concentrations of vehicle (DMSO). AP parameters were measured, including APD at 50, 75 and 90% repolarization (APD50, APD75 and APD90 respectively). Data are given as % change from control for the treated groups (vehicle, control and drug). This allowed a single comparison to be made at each concentration, and every experiment was performed with its own set of controls (vehicle). No data were used more than once.

[1] = target: rabbit CaV1.2 α1-subunit with β2a and α2-δ1 (Oryctolagus cuniculus, UniProt P15381); assay: Barium current (IBa) inhibition through Cav1.2 in transfected tsA-201 cells, manual patch clamp
Protocol: (§2) The transfection of tsA‐201 cells was performed using the FUGENE6 Transfection Reagent (Roche Diagonstics GmbH, Mannheim, Germany) following standard protocols. The tsA‐201 cells were used until passage number 15. […] The extracellular bath solution (in mM: BaCl2 20, MgCl2 1, HEPES 10, choline‐Cl 90) was titrated to pH 7.4 with methanesulfonic acid. […] The drugs were applied to cells under voltage clamp using a microminifold perfusion system. Ca^2+ channel block was estimated as peak IBa inhibition during a train of short (50 ms) test pulses from −80 mV at a frequency of 0.2 Hz. Patch clamp experiments to study hERG, Nav1.5 and Cav1.2 currents were performed at room temperature (22–25°C). All data were digitized and saved to disc. Current traces were filtered at 5 kHz and sampled at 10 kHz. The pClamp software package (Version 7.0 Axon Instruments, Inc.) was used for data acquisition and preliminary analysis. Microcal Origin 7.0 was used for analysis, and sigmoidal curves were fitted using the Hill equation.
(§3) Use‐dependent channel inhibition was studied during trains of 1 Hz and 50 ms test pulses (from −80 to +10 mV). After the application of 20 test pulses in control (absence of drug), the cells were incubated for 3 min with drug at rest. Peak current inhibition during the first pulse (1st, Figure 6C) in the presence of the drug reflects ‘resting state’ block. Additional current inhibition during a subsequently applied pulse train illustrates use‐dependent block. Peak current inhibition in control and drug are compared in Figure 6D.

[2] = target: Cav1.2 (rabbit α1-subunit with β2a and α2-δ1) (Oryctolagus cuniculus, UniProt P15381); assay: in vitro; details: rabbit, pH 7.4, Cav1.2 IC50 (peak IBa inhibition)
Protocol: as §2, §3

hERG channels = hERG channels (Homo sapiens, UniProt Q12809); assay: hERG current inhibition, automated planar patch clamp in HEK293 cells stably expressing hERG
Chain of hERG channels (Q12809 whole entry): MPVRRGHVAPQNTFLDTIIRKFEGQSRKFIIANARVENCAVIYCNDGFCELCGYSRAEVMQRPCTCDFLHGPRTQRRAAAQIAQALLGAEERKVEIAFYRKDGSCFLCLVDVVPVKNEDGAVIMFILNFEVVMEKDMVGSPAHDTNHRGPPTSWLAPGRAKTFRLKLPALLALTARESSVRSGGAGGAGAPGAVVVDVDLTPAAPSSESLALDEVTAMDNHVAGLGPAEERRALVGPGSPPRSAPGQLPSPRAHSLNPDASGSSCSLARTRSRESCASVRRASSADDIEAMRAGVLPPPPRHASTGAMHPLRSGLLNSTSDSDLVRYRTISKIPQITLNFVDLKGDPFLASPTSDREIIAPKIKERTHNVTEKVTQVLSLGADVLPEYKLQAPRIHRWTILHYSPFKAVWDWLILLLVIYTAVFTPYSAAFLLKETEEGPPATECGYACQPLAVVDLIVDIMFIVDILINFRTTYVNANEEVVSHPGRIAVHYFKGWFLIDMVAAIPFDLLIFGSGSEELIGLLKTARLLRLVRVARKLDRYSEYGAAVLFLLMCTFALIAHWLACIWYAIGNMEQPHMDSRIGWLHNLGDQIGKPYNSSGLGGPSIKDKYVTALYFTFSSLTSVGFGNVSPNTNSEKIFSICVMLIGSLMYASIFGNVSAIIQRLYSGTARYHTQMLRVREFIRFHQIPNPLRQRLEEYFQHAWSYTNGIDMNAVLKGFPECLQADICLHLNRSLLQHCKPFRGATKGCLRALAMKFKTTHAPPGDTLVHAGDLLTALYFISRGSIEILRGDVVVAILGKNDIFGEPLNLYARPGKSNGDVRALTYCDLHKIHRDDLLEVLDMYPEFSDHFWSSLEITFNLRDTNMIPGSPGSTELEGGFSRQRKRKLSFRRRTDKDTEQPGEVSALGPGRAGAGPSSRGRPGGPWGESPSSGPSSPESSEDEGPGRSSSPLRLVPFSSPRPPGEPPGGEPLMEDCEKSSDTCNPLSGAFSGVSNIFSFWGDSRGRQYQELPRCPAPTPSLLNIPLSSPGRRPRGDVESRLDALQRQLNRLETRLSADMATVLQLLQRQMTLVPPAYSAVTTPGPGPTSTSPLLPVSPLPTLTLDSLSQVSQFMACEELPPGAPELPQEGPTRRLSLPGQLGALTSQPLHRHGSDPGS
Protocol: as §1
Data are presented as mean ± SEM for at least five cells from two different batches or for three independent measurements with HEK293 cells.
The concentration–inhibition relationships were analysed by plotting the normalized values of peak tail current versus peak tail steady current in the presence of the respective cumulatively applied compound concentrations (Figure 4B, C). Data points were fitted using Hill equation.

hERG potassium channels = details: read-out: Ki binding studies; radioligand binding; ref Shagufta et al 2009; cited from earlier work
[3] = Homo sapiens, 0.5 h, read-out: Changes in APD90 in hiPSC-CMs

Chain of Nav1.5 (Q14524 whole entry): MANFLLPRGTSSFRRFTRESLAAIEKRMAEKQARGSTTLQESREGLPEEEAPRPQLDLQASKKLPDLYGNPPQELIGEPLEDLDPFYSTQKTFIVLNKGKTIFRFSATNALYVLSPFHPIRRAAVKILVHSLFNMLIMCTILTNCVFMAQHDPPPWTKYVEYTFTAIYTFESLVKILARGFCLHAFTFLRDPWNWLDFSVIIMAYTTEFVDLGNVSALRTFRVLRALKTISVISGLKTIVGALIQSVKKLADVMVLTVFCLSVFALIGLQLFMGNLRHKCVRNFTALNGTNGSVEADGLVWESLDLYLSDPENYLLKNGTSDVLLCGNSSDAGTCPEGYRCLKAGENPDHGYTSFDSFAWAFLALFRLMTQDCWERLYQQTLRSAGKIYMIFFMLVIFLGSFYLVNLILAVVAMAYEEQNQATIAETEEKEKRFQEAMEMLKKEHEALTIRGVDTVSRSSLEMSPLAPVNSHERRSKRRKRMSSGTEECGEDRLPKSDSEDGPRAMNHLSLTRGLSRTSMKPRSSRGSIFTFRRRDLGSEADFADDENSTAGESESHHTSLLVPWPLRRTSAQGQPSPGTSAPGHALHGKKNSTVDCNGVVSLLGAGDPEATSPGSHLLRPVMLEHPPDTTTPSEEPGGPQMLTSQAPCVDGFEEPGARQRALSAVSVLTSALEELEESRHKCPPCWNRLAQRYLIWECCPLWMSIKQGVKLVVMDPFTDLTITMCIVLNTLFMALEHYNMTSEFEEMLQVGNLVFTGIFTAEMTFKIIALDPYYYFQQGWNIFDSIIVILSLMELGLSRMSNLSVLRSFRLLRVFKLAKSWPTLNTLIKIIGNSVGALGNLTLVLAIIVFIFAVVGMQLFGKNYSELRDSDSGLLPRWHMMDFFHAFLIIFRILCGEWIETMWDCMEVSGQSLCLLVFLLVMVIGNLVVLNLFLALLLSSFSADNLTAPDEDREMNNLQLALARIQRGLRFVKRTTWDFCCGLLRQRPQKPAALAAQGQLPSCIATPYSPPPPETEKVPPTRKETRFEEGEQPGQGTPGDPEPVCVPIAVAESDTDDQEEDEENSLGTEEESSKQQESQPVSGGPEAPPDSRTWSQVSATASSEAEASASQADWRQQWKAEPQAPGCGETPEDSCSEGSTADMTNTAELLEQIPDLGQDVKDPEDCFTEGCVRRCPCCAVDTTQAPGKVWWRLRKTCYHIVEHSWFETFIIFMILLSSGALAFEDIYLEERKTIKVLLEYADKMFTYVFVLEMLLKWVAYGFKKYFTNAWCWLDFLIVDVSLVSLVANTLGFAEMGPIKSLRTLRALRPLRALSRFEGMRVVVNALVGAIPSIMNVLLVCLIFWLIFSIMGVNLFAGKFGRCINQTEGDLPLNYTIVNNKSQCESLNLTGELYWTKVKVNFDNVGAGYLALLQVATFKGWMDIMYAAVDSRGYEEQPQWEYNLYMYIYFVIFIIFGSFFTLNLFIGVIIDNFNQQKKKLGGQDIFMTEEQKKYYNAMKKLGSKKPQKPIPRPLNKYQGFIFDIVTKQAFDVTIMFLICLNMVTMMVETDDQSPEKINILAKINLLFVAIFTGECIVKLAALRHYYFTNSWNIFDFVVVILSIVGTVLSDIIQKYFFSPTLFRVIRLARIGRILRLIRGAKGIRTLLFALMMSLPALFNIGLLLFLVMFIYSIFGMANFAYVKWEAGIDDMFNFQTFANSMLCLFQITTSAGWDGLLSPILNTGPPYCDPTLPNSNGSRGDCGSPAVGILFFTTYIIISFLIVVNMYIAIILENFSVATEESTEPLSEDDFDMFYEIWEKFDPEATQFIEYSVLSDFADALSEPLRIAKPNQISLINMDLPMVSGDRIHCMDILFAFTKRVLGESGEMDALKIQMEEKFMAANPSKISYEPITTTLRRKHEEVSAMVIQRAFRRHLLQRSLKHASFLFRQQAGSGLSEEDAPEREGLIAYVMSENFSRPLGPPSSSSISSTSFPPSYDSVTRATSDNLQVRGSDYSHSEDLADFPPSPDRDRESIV

CN(CCOc1ccc(Cl)c(Cl)c1)CCc1ccccc1 [Dofe44]
Shift of Nav1.5 concentration-response curve towards lower concentrations (Nav1.5; -80 mV versus -140 mV holding potential): fivefold
IC50 (Nav1.5; holding potential -80 mV): 4.7 ± 2 µM
IC50 (Nav1.5; holding potential -140 mV, 0.2 Hz): 23.3 ± 1.9 µM
activity at 0.01 µM (hiPSC-CMs; [3]): 90%
activity at 0.1 µM (hiPSC-CMs; [3]): 83%
activity at 0.3 µM (hiPSC-CMs; [3]): 87%
activity at 1 µM (hiPSC-CMs; [3]): 92%
EC (50% APD prolongation) (hiPSC-CMs; Homo sapiens, read-out: D150 (concentration that prolongs the AP by 50%), APD90 in hiPSC-CMs): > 0.6 µM
Effect on APD90 / AP prolongation (in words) (hiPSC-CMs; hiPSC-CMs): did not affect APD90 even at 1 μM; also recorded: did not induce prolongation of AP
Resting state and use-dependent block of Cav1.2 ([1]; 1 Hz trains of 50 ms pulses after 3 min incubation at rest): No use‐dependent block
Cav1.2 IC50 (peak IBa inhibition) ([1]; rabbit, pH 7.4): > 200 µM
IC50 [2]: > 100 µM
IC50 (hERG channels): 0.0381 ± 0.0126 µM
Ki (hERG potassium channels): 0.0024 ± 0.0022 µM
